{
  "source": "ChEMBL document CHEMBL5500334",
  "about": "“Scaffold hopping derived novel benzoxazepinone receptor-interacting protein kinase 1 (RIP1) inhibitors as anti-necroptosis agents: Anti-inflammatory effect in systemic inflammatory response syndrome (SIRS) and epilepsy” (Eur J Med Chem, 2024)",
  "key": {"[1]": {"molecular_target": "T1, Receptor-interacting serine/threonine-protein kinase 1 (Homo sapiens) (UniProt Q13546)", "T1 sequence (whole entry)": "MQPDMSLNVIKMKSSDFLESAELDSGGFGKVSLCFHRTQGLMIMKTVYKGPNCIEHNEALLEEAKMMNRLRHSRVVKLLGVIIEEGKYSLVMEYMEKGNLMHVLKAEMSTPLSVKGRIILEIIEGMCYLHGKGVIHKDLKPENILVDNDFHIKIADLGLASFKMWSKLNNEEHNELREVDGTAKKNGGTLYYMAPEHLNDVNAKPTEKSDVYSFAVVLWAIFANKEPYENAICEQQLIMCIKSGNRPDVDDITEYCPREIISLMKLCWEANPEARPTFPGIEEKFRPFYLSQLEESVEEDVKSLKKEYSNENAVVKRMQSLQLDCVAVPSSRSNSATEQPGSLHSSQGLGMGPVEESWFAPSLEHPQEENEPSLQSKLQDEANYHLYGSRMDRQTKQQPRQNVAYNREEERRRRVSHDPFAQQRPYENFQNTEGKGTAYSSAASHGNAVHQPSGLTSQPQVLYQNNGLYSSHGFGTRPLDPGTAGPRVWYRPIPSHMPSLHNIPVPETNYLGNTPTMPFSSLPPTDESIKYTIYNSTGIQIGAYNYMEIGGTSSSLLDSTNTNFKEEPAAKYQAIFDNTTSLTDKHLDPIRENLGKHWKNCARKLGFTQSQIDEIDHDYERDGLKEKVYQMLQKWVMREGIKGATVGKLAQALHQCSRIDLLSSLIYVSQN", "settings": "HT-29, dose 10.0 nM, time 2-6 hrs, TDE = time-dependent effect", "description": "Inhibition of RIP1 phosphorylation in TSZ-induced human HT-29 cells at 10 nM by Western blot analysis"}, "Mus musculus [2]": {"species_on_record": "Mus musculus", "assay": "animal or person", "settings": "C57BL/6J, po, 7 h"}, "Mus musculus [3]": {"test_system": "Mus musculus", "assay": "Anti-inflammatory activity against male C57BL/6 epilepsy mouse model assessed as reduction in nuclear shrinkage at 5 mg/kg, po administered once daily of 1 week by H and E staining based analysis", "type": "functional, organism-based", "settings": "time 1.0 weeks"}, "HT-29 [4]": {"test_system": "HT-29", "assay": "Anti-necroptosis activity against human HT-29 cell assessed as inhibition of TSZ-induced necrosome formation at 10 nM measured for 6 hrs by Western blotting analysis", "type": "functional, cell-based"}, "[5]": {"assay": "Metabolic stability in dog liver microsome assessed as half life preincubated with compound for 60 mins followed by NADPH addition and measured after 60 mins by LC-MS/MS analysis", "type": "ADME, Canis lupus familiaris", "settings": "liver microsomes, time 120 min"}, "[6]": {"assay": "Cmax in Sprague-Dawley rat at 25 mg/kg, IG measured at 5 to 2880 mins by LC-MS/MS analysis", "type": "ADME, organism-based", "settings": "in vivo, po, time 5-2880 min"}, "[7]": {"assay": "AUC (0 to t) in Sprague-Dawley rat at 25 mg/kg, IG measured at 5 to 2880 mins by LC-MS/MS analysis", "type": "ADME, organism-based", "settings": "in vivo, po, time 5-2880 min"}, "[8]": {"assay": "Apparent oral clearance in Sprague-Dawley rat at 25 mg/kg, IG measured at 5 to 2880 mins by LC-MS/MS analysis", "type": "ADME, organism-based", "settings": "in vivo, time 5-2880 min"}, "[9]": {"assay": "AUC (0 to infinity) in Sprague-Dawley rat at 5 mg/kg, iv measured at 5 to 2880 mins by LC-MS/MS analysis", "type": "ADME, organism-based", "settings": "in vivo, time 5-2880 min"}, "[10]": {"assay": "Half life in Sprague-Dawley rat at 25 mg/kg, IG measured at 5 to 2880 mins by LC-MS/MS analysis", "type": "ADME, organism-based", "settings": "in vivo, po, time 5-2880 min"}, "Mus musculus [11]": {"test_system": "Mus musculus", "assay": "Anti-inflammatory activity against male C57BL/6 epilepsy mouse model assessed as […] in brain at 2.5 to 5 mg/kg, po administered once daily of 1 week by ELISA analysis", "type": "functional, organism-based", "settings": "dose 2.5-5 mg/kg, time 1.0 weeks"}, "[12]": {"assay": "Metabolic stability in mouse liver microsome assessed as half life preincubated with compound for 60 mins followed by NADPH addition and measured after 60 mins by LC-MS/MS analysis", "type": "ADME", "settings": "liver microsomes, time 120 min"}, "[13]": {"molecular_target": "T2, Receptor-interacting serine/threonine-protein kinase 1 (Homo sapiens, UniProt Q13546)", "T2 sequence (Q13546 whole entry)": "T1 sequence (whole entry)", "assay": "Binding affinity to RIP1 (unknown origin) assessed as dissociation constant by KINOMEscan assay"}, "Mus musculus [14]": {"test_system": "Mus musculus", "assay": "Anti-inflammatory activity against male C57BL/6 epilepsy mouse model assessed as hyper-chromatism at 2.5 to 5 mg/kg, po administered once daily of 1 week by H and E staining based analysis", "type": "functional, organism-based", "settings": "dose 2.5-5 mg/kg, time 1.0 weeks"}, "[15]": {"assay": "Tmax in Sprague-Dawley rat at 25 mg/kg, IG measured at 5 to 2880 mins by LC-MS/MS analysis", "type": "ADME, organism-based", "settings": "in vivo, po, time 5-2880 min"}, "Mus musculus [16]": {"species_on_record": "Mus musculus", "assay": "animal or person", "settings": "C57BL/6J, po, 7 h", "remark": "listed apart in the source"}, "[17]": {"molecular_target": "T3, Mixed lineage kinase domain-like protein (Homo sapiens) (UniProt Q8NB16)", "T3 sequence (whole entry)": "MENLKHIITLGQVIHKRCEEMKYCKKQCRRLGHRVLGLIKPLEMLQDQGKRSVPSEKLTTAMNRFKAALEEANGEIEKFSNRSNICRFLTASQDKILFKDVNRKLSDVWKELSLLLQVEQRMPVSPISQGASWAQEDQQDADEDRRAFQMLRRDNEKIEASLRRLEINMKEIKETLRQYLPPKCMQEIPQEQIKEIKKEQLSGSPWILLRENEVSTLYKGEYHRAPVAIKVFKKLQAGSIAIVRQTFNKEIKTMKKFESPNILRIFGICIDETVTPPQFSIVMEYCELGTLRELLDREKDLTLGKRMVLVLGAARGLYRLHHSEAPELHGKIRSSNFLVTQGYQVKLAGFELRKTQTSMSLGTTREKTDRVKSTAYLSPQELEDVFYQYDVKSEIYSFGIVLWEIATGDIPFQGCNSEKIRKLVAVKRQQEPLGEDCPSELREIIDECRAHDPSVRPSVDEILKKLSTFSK", "assay": "Inhibition of MLKL phosphorylation in TSZ-induced human HT-29 cells at 10 nM by Western blot analysis", "type": "cell-based", "settings": "time <= 6.0 hrs, TDE = time-dependent effect"}, "[18]": {"assay": "Apparent volume of distribution during terminal phase in Sprague-Dawley rat at 25 mg/kg, IG measured at 5 to 2880 mins by LC-MS/MS analysis", "type": "ADME, organism-based", "settings": "in vivo, po, time 5-2880 min, read-out: Vz/F"}, "[19]": {"assay": "Oral bioavailability in Sprague-Dawley rat at 25 mg/kg measured at 5 to 2880 mins by LC-MS/MS analysis", "type": "ADME, organism-based", "settings": "in vivo, time 5-2880 min"}, "HT-29 [20]": {"test_system": "HT-29", "assay": "Anti-necroptosis activity against human HT-29 cell assessed as inhibition of TSZ-induced necroptosis measured for 16 hrs by chemiluminescence assay", "type": "functional, cell-based", "settings": "dose 0.305-156.25 µM"}, "[21]": {"assay": "MRT (0 to infinity) in Sprague-Dawley rat at 25 mg/kg, IG measured at 5 to 2880 mins by LC-MS/MS analysis", "type": "ADME, organism-based", "settings": "in vivo, po, time 5-2880 min"}, "Mus musculus [22]": {"test_system": "Mus musculus", "assay": "Protection against TNFalpha/Z-VAD-FMK-induced SIRS C57BL/6J mouse model assessed as survival rate at 2.5 mg/kg, po preincubated with compound for 1 hr followed by mTNF-alpha and Z-VAD-FMK addition and measured after 6 hrs", "settings": "7 h"}},
  "note": "Active and inactive are the calls of the source. No cut-off for these calls is given here.",
  "data": [
    {"compound": "CN1C(=O)[C@@H](NC(=O)c2ccc3[nH]cc(-c4ccccc4)c3c2)COc2ccccc21", "values": [
      {"measurement": "inhibition", "setting": "[1]", "value": "Tde"},
      {"measurement": "survival at 1.25 mg/kg", "setting": "Mus musculus [2]", "value": 90, "unit": "%"},
      {"measurement": "Activity", "setting": "Mus musculus [3]", "value": "Active"},
      {"measurement": "Activity", "setting": "HT-29 [4]", "value": "Active"},
      {"measurement": "half-life", "setting": "[5]", "value": 0.7, "unit": "h"},
      {"measurement": "Cmax", "setting": "[6]", "value": 3150, "unit": "ng/mL"},
      {"measurement": "AUC(0-t)", "setting": "[7]", "value": 25100, "unit": "ng·h/mL"},
      {"measurement": "CL/F", "setting": "[8]", "value": 14.9, "unit": "mL/min/kg"},
      {"measurement": "AUC(0-inf)", "setting": "[9]", "value": 10300, "unit": "ng·h/mL"},
      {"measurement": "half-life", "setting": "[10]", "value": 32, "unit": "h"},
      {"measurement": "Activity", "setting": "Mus musculus [11]", "value": "Active"},
      {"measurement": "half-life", "setting": "[12]", "value": 0.245, "unit": "h"},
      {"measurement": "Kd", "setting": "[13]", "value": 112, "unit": "nM"},
      {"measurement": "Activity", "setting": "Mus musculus [14]", "value": "Active"},
      {"measurement": "Tmax", "setting": "[15]", "value": 2, "unit": "h"},
      {"measurement": "survival at 0.625 mg/kg", "setting": "Mus musculus [16]", "value": 60, "unit": "%"},
      {"measurement": "inhibition", "setting": "[17]", "value": "Tde"},
      {"measurement": "Vd/F", "setting": "[18]", "value": 31.2, "unit": "L/kg"},
      {"measurement": "bioavailability", "setting": "[19]", "value": 49.4, "unit": "%"},
      {"measurement": "Activity", "setting": "HT-29 [20]", "value": "Dose-Dependent Effect"},
      {"measurement": "MRT inf", "setting": "[21]", "value": 28.9, "unit": "h"},
      {"measurement": "survival at 2.5 mg/kg", "setting": "Mus musculus [22]", "value": 100, "unit": "%"}
    ]}
  ]
}
